Activity calls are given as the source filed them. The calls are words filed in the database; no cut-off is given here.
Assays:
Cytochrome P450 2C9 = Cytochrome P450 2C9 (Homo sapiens, UniProt P11712); test: Time-dependent inhibition of CYP2C9 (unknown origin); assay type: ADME
Cytochrome P450 3A4 = Cytochrome P450 3A4 (Homo sapiens, UniProt P08684); test: Induction of CYP3A4 in human hepatocytes; assay type: ADME, cell-based
Cytochrome P450 2C19 = Cytochrome P450 2C19 (Homo sapiens, UniProt P33261); test: Time-dependent inhibition of CYP2C19 (unknown origin); assay type: ADME
Chain of Cytochrome P450 2C19 (P33261 whole entry): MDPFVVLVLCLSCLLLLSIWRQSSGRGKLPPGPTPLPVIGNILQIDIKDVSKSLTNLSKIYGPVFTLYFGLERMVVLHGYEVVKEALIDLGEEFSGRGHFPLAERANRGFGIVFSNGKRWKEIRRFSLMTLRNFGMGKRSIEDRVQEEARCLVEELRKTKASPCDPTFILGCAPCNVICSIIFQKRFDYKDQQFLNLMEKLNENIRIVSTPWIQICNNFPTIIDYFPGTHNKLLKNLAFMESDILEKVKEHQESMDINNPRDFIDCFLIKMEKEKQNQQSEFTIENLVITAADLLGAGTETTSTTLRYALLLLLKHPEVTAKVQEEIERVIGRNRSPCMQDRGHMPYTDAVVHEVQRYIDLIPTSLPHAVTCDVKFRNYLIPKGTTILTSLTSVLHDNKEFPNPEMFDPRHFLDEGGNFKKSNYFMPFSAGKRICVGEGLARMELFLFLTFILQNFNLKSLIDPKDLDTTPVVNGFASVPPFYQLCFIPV

[1] = molecular target: T1, Glucocorticoid receptor (Rattus norvegicus) (UniProt P06536); test: Partial agonist activity at rat glucocorticoid receptor in primary hepatocytes assessed as induction of tyrosine amino transferase activity at 10 uM measured after 20 hrs; assay type: cell-based
T1 sequence (whole entry): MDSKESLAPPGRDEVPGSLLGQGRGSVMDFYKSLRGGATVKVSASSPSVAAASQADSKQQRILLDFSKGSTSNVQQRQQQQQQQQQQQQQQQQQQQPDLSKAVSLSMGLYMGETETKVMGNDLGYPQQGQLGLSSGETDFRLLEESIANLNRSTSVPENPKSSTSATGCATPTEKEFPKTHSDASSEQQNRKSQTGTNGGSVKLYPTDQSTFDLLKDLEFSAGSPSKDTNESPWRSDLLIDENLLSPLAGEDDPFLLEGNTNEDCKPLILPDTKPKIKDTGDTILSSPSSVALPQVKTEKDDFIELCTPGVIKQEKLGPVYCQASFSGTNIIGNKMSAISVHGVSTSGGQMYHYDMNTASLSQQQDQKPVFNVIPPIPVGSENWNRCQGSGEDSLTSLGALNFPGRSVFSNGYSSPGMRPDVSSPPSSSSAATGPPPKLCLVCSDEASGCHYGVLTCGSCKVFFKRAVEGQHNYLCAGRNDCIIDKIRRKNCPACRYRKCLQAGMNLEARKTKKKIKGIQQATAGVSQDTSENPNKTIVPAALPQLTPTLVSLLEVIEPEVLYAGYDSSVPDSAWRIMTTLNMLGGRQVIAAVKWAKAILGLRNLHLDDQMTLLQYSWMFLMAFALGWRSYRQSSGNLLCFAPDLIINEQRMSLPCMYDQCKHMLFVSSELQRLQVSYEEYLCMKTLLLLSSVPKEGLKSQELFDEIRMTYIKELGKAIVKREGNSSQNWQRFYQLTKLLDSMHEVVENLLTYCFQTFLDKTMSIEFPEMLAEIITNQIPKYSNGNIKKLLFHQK

[2] = molecular target: T2, Glucocorticoid receptor (Homo sapiens) (UniProt P04150); test: (§1) Antagonist activity at glucocorticoid receptor in human primary hepatocytes assessed as inhibition of dexamethasone-induced tyrosine amino transferase activity preincubated for 30 mins followed by dexamethasone addition measured after 20 hrs; assay type: cell-based
T2 sequence (whole entry): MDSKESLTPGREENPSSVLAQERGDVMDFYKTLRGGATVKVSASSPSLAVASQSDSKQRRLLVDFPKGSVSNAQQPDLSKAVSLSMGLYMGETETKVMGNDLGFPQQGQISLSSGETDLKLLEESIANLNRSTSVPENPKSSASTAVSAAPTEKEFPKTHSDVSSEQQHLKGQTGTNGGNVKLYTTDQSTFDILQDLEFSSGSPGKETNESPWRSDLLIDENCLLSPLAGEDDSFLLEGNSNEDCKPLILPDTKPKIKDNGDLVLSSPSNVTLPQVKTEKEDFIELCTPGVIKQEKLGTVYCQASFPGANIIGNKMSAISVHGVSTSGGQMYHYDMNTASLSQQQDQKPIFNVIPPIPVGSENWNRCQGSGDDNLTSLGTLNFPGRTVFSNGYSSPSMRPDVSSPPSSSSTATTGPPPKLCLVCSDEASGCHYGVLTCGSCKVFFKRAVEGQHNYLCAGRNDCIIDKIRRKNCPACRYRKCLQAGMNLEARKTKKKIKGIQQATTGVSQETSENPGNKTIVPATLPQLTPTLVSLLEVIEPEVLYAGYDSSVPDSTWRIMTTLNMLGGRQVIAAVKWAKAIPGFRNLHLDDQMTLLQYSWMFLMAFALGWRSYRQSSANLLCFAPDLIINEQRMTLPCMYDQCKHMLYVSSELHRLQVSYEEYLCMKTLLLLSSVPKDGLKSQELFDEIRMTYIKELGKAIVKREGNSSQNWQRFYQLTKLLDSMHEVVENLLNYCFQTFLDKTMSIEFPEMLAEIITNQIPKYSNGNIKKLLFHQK

Glucocorticoid receptor = molecular target: T3, Glucocorticoid receptor (Homo sapiens, UniProt P04150); test: as §1; assay type: cell-based
T3 sequence (P04150 whole entry): T2 sequence (whole entry)

[3] = molecular target: T2, Glucocorticoid receptor (Homo sapiens); test: Agonist activity at glucocorticoid receptor in human primary hepatocytes assessed as induction of tyrosine amino transferase activity measured after 20 hrs relative to control; assay type: cell-based
Cytochrome P450 1A2 = molecular target: T4, Cytochrome P450 1A2 (Homo sapiens, UniProt P05177); test: Time-dependent inhibition of CYP1A2 (unknown origin); assay type: ADME
T4 sequence (P05177 whole entry): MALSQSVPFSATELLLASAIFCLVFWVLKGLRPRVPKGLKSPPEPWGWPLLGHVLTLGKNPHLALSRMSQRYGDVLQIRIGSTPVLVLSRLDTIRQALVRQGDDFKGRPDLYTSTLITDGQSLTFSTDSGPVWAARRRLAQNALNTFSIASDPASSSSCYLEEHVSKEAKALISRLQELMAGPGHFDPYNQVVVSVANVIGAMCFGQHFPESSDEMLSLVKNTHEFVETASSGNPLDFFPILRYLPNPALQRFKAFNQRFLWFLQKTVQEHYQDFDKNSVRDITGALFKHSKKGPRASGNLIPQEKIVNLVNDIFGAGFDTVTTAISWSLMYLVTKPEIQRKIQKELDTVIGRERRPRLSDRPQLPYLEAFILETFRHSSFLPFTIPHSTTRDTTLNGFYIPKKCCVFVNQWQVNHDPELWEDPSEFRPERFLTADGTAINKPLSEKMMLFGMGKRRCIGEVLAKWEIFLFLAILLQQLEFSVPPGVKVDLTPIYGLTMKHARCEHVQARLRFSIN

Cytochrome P450 3A5 [4] = molecular target: T5, Cytochrome P450 3A5 (Homo sapiens, UniProt P20815); test: Inhibition of CYP3A5 (unknown origin); assay type: ADME
T5 sequence (P20815 whole entry): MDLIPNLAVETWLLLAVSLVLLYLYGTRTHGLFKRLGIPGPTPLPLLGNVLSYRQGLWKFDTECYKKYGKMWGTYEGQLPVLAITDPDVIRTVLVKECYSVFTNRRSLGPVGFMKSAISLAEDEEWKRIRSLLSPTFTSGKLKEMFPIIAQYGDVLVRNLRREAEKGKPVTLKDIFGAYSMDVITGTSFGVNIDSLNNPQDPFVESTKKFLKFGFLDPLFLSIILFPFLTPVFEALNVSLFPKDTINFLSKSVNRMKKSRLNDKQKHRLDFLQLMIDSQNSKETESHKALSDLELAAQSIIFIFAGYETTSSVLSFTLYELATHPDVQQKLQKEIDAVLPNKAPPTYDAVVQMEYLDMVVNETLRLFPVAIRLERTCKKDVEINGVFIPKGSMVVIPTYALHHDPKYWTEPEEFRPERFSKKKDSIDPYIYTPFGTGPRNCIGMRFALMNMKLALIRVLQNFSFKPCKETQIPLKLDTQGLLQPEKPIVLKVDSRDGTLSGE

Cytochrome P450 3A5 [5] = molecular target: T5, Cytochrome P450 3A5; test: Time-dependent inhibition of CYP3A5 (unknown origin); assay type: ADME

Chain of Cytochrome P450 2C9 (P11712 whole entry): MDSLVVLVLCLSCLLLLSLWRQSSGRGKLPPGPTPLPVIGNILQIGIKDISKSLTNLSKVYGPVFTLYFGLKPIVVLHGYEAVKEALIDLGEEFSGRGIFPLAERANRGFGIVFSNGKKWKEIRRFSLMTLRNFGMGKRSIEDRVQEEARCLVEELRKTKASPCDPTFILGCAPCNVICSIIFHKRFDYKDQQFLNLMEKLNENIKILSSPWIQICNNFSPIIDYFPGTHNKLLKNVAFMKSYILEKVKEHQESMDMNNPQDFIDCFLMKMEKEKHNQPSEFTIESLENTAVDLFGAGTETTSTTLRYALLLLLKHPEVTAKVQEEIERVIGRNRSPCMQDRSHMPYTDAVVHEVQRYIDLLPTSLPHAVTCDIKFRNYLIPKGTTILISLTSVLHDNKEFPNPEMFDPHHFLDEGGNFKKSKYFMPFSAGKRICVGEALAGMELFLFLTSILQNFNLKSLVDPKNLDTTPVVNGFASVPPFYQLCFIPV
Chain of Cytochrome P450 3A4 (P08684 whole entry): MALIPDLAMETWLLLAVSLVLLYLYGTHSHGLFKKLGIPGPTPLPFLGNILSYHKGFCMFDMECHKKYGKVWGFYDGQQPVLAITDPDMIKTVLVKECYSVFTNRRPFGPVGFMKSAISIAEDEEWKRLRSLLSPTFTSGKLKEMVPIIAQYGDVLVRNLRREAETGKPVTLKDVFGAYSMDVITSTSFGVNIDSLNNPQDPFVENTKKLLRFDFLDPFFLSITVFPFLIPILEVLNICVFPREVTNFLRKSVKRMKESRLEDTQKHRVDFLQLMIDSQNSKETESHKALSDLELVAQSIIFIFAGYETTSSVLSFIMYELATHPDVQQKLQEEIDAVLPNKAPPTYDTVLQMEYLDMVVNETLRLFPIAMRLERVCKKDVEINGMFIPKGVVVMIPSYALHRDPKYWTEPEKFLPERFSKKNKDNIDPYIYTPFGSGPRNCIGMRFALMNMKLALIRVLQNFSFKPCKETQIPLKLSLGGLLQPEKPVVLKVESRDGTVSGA

Cn1cc(S(=O)(=O)N2CCC3=Cc4c(cnn4-c4ccc(F)cc4)C[C@]3(C(=O)c3cc(C(F)(F)F)ccn3)C2)cn1 [RELACORILANT]
TDI (Cytochrome P450 2C9): Not Active
Activity (Cytochrome P450 3A4): Not Active
TDI (Cytochrome P450 2C19): Not Active
Activity [1]: Active
Imax [2]: 100%
Ki (Glucocorticoid receptor): 0.0812 µM
Emax [3]: 0%
TDI (Cytochrome P450 1A2): Not Active
IC50 (Cytochrome P450 3A5 [4]): 4.9 µM
TDI (Cytochrome P450 3A5 [5]): Not Active
